We go through 16 compounds from PubChem BioAssay (NCI).

Test systems include A549 NSCLC; EKVX NSCLC; HOP-62 NSCLC; KM12 colon; NCI-H23 lung; OVCAR-4 ovarian; SW-620 colon; TK-10 renal; MCF7 breast; MDA-N.
Common to all, as to assay: DTP human tumour cell line panel, 48 h

One may read the TGI as the concentration giving total growth inhibition.

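Compound exposure: 48 hours, 5 concentrations, 96-well plates. At the TGI there is no net growth.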 A value given as a limit tells only on which side of the number the result lay.

On to `O=C1c2ccccc2C2C1N2C(=O)C(F)(F)F` (stereo unspecified), for which the total growth inhibition concentration (TGI) with A549 NSCLC, in the assay with EKVX NSCLC, with HOP-62 NSCLC, in the assay on KM12 colon, with NCI-H23 lung and in the assay with OVCAR-4 ovarian was > 100 µM throughout. The TGI in the assay on SW-620 colon and in the assay with TK-10 renal was > 100 µM each time.

Consider `COc1nc(N)c(C(=O)CCl)c(=O)n1C`, for which the concentration for total growth inhibition (TGI) came to 51.6 µM in the assay with A549 NSCLC; 31.7 µM in the assay with EKVX NSCLC; 30.4 µM in the assay on KM12 colon; 33.2 µM in the assay with OVCAR-4 ovarian; 28.5 µM in the assay with SW-620 colon; 29 µM in the assay on TK-10 renal.

`CNC(=O)C(C)C1CCC2(C)C=CC(=O)C(C)=C2C1O` (stereo unspecified): the concentration for total growth inhibition (TGI) was > 90.2 µM in the assay on A549 NSCLC; > 100 µM in the assay with EKVX NSCLC; > 100 µM in the assay with HOP-62 NSCLC; > 100 µM in the assay with KM12 colon; > 100 µM in the assay with MCF7 breast; > 100 µM in the assay with NCI-H23 lung. Also, the TGI in the assay with OVCAR-4 ovarian and with SW-620 colon was > 100 µM throughout.

Take `COc1ccc(CNc2nc(NCc3ccc(OC)c(OC)c3)nc(NC3CCCCC3)n2)cc1`: the TGI with A549 NSCLC is > 100 µM; in the assay with EKVX NSCLC, > 100 µM; in the assay on KM12 colon, 17 µM; with MCF7 breast, > 100 µM; in the assay on NCI-H23 lung, 52.2 µM; in the assay with OVCAR-4 ovarian, > 100 µM. In addition, the TGI with SW-620 colon and in the assay with TK-10 renal was > 100 µM each time.

For `O=c1[nH][nH]c(=O)n1Cc1ccccc1Cn1c(=O)[nH][nH]c1=O`, the TGI in the assay on A549 NSCLC, in the assay on EKVX NSCLC, in the assay on HOP-62 NSCLC, in the assay with KM12 colon, in the assay on MDA-N and in the assay on NCI-H23 lung was > 100 µM throughout. Besides, the TGI in the assay with SW-620 colon and in the assay with TK-10 renal was > 100 µM each time.

Consider `Cc1cccc2c(=O)cc(-c3ccccc3)[nH]c12`, for which the total growth inhibition concentration (TGI) was > 100 µM in the assay with A549 NSCLC; > 100 µM in the assay with EKVX NSCLC; 42.6 µM with HOP-62 NSCLC; > 100 µM in the assay with NCI-H23 lung; 35.7 µM in the assay on OVCAR-4 ovarian; > 100 µM in the assay on SW-620 colon. For the same compound, the total growth inhibition concentration (TGI) in the assay with TK-10 renal is > 100 µM.

For the compound `COC(=O)c1cc2c(n1S(=O)(=O)c1ccc(C)cc1)C(=O)C(=O)c1[nH]cc(C(=O)OCc3ccccc3)c1-2`, the TGI in the assay with A549 NSCLC came to 0.351 µM; with EKVX NSCLC, 0.665 µM; in the assay with HOP-62 NSCLC it was 0.385 µM; in the assay with KM12 colon it was 0.563 µM; in the assay on MCF7 breast, 0.174 µM; with NCI-H23 lung, 0.211 µM. Also, the results for the TGI with OVCAR-4 ovarian, in the assay with SW-620 colon and with TK-10 renal were 0.987 µM, 0.174 µM and 1.51 µM, respectively.

With `CCN(CC)CCC(=O)Nc1ccc2c(c1)C(=O)c1ccc(NC(=O)CCN(CC)CC)cc1C2=O`, the TGI in the assay on A549 NSCLC was 20.6 µM; in the assay on EKVX NSCLC it was 15.1 µM; with HOP-62 NSCLC it was 17.6 µM; in the assay with KM12 colon it was 4.57 µM; in the assay with NCI-H23 lung, 23.2 µM; with OVCAR-4 ovarian, 18.9 µM. The TGI came out at 6.93 µM with SW-620 colon and 18.9 µM with TK-10 renal.

Take `C[C@]12CC[C@H](O)CC1=CC[C@@H]1C2CC[C@]2(C)C(=O)N(N)C(=O)CC12` (stereo partly specified): the total growth inhibition concentration (TGI) in the assay with A549 NSCLC, in the assay on EKVX NSCLC, in the assay on HOP-62 NSCLC, with KM12 colon, in the assay on NCI-H23 lung and in the assay with OVCAR-4 ovarian was > 100 µM in each case. For the same compound, the TGI in the assay on SW-620 colon and with TK-10 renal was > 100 µM throughout.

Turning to `[N-]=[N+]=Nc1cc(=O)oc2ccccc12`, the TGI with A549 NSCLC, with HOP-62 NSCLC, in the assay with KM12 colon, in the assay with NCI-H23 lung, in the assay on OVCAR-4 ovarian and with SW-620 colon was > 100 µM each time. In the assay on TK-10 renal, the total growth inhibition concentration (TGI) was > 100 µM.

In the case of `CC(N)Cc1ccc(C(=O)Cl)cc1` (stereo unspecified), the concentration for total growth inhibition (TGI) in the assay with A549 NSCLC, with EKVX NSCLC, with HOP-62 NSCLC, with KM12 colon, with NCI-H23 lung and in the assay on OVCAR-4 ovarian was > 100 µM in each case. The TGI in the assay on SW-620 colon and in the assay on TK-10 renal was > 100 µM throughout.

In the case of `CCCCCCCCCCCOc1ccc(C(=O)C(=O)c2ccc(OCCCCCCCCCCC)c(OCCCCCCCCCCC)c2)cc1OCCCCCCCCCCC`, the total growth inhibition concentration (TGI) in the assay on A549 NSCLC, with EKVX NSCLC, with HOP-62 NSCLC, with KM12 colon, in the assay with NCI-H23 lung and in the assay on OVCAR-4 ovarian was > 100 µM in each case. For the same compound, the total growth inhibition concentration (TGI) in the assay on SW-620 colon and in the assay with TK-10 renal was > 100 µM throughout.

Consider `CC1C=C(CCCCCCCCCCCC[C@@H](O)[C@@H]2CC[C@@H]([C@@H]3CC[C@@H](C(O)CCCCCCCCCCCCC4=C[C@H](C)OC4=O)O3)O2)C(=O)O1` (stereo partly specified), for which the total growth inhibition concentration (TGI) in the assay on A549 NSCLC, in the assay with EKVX NSCLC, with HOP-62 NSCLC, in the assay on KM12 colon, with NCI-H23 lung and with SW-620 colon was > 100 µM throughout. Besides, the total growth inhibition concentration (TGI) in the assay with TK-10 renal is > 100 µM.

As to `Brc1ccc(N=c2nc3ccccn3n3nc(-c4ccccc4)cc23)cc1`, the concentration for total growth inhibition (TGI) in the assay with A549 NSCLC is > 100 µM; in the assay with EKVX NSCLC, > 100 µM; with HOP-62 NSCLC it was 32.8 µM; in the assay on KM12 colon, > 100 µM; with NCI-H23 lung it was > 100 µM; in the assay on OVCAR-4 ovarian it was 20.7 µM. Also, the TGI is > 100 µM in the assay on SW-620 colon and 95.4 µM in the assay on TK-10 renal.

For `CNC(=O)OCC1=C(COC(=O)NC)C(C)N(c2ccc(OC)cc2)C1` (stereo unspecified), the TGI in the assay with A549 NSCLC, in the assay on EKVX NSCLC, in the assay on HOP-62 NSCLC, in the assay on KM12 colon, in the assay with MCF7 breast and in the assay with NCI-H23 lung was > 100 µM throughout. For the same compound, the TGI in the assay with OVCAR-4 ovarian is > 100 µM; with SW-620 colon, > 100 µM; in the assay on TK-10 renal, 73 µM.

As for `CCOC(=O)N1CCC2(CC1)C[C@](C)(C(C)=O)C(C)O2` (stereo partly specified), the TGI with A549 NSCLC, with EKVX NSCLC, with HOP-62 NSCLC, in the assay on KM12 colon, in the assay on MCF7 breast and in the assay with NCI-H23 lung was > 100 µM in each case. The TGI with OVCAR-4 ovarian, in the assay on SW-620 colon and in the assay on TK-10 renal was > 100 µM each time.
